Structures can show the parent of a compound that is named as a salt. Where two headings read alike, the source gives them in different places.
Tests used:
Assay in all cases: biochemical
[1] = molecular target: T1, recombinant human MMP-1 (Homo sapiens, UniProt P03956); conditions: read-out: MMP-1 IC50
T1 construct: made in house; host or cells: transfected HT-1080 cells (provided by Dr. Harold Welgus, Washington University)
T1 sequence (P03956 100-469): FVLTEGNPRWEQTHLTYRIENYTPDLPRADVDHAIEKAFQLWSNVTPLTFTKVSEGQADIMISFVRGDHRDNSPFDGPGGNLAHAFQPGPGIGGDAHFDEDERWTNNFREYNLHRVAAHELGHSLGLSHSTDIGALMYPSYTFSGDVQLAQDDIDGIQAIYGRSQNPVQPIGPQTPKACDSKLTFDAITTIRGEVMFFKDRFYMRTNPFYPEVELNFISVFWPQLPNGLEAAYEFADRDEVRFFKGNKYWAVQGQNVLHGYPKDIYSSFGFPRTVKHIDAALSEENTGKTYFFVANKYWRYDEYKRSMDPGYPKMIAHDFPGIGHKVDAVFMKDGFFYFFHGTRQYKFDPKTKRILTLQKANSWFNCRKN

[2] = molecular target: recombinant human MMP-9 (Homo sapiens, UniProt P14780); conditions: read-out: MMP-9 IC50
[3] = molecular target: recombinant human MMP-13 (Homo sapiens, UniProt P45452); conditions: read-out: MMP-13 IC50
[4] = molecular target: T2, recombinant human MMP-2 (Homo sapiens, UniProt P08253); conditions: read-out: MMP-2 IC50
T2 sequence (P08253 110-660): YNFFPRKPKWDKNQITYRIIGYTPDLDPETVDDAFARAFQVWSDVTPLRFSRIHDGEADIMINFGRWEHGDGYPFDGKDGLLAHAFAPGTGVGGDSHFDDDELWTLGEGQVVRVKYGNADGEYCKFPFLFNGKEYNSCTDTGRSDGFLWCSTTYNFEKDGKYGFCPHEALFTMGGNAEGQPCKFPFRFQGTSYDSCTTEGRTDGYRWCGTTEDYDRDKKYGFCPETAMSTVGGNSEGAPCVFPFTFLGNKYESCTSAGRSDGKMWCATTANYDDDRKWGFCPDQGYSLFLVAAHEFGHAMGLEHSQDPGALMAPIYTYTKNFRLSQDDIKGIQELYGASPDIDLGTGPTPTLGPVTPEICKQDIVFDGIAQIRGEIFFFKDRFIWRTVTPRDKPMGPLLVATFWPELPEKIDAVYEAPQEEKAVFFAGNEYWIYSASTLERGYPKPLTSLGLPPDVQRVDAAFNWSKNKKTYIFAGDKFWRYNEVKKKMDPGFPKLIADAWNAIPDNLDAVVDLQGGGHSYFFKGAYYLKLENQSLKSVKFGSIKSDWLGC

recombinant human MMP-9, sequence (P14780 107-707 limits assumed): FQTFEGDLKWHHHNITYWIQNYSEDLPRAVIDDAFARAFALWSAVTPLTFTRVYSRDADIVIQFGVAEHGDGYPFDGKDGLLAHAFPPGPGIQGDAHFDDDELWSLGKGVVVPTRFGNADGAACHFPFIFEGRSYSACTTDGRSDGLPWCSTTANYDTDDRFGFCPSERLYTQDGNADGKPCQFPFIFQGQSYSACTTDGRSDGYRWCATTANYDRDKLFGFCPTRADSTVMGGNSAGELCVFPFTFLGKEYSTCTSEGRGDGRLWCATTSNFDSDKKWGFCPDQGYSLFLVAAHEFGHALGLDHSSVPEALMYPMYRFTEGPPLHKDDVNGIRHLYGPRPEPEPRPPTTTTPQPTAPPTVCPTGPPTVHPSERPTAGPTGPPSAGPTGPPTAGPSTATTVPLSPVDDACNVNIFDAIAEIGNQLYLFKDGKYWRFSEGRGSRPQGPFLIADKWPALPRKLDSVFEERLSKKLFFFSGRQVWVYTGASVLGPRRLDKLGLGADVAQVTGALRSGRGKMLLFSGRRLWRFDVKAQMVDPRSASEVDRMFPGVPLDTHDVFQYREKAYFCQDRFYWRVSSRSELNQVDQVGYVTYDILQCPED

## O=C(CS(=O)(=O)c1ccc(Oc2ccccc2)cc1)NO [Example 1]
[1]; Inhibition Table A
  IC50: 6.6 µM
[2]; Inhibition Table A
  IC50: 31.6 nM
[3]; Inhibition Table A
  IC50: 5.1 nM
[4]; Inhibition Table A
  IC50: 2.6 nM

## CC(C)(C(=O)NO)S(=O)(=O)c1ccc(Oc2ccccc2)cc1 [Example 2]
[1]; Inhibition Table A
  IC50: 0.22 µM
[2]; Inhibition Table A
  IC50: 1.4 nM
[3]; Inhibition Table A
  IC50: 0.25 nM
[4]; Inhibition Table A
  IC50: 0.1 nM

## CCCCOC1CCN(c2ccc(S(=O)(=O)C3(C(=O)NO)CCOCC3)cc2)CC1 [Example 16]
[1]; Inhibition Table A
  IC50: > 10 µM
[2]; Inhibition Table A
  IC50: 2500 nM
[3]; Inhibition Table A
  IC50: 2.4 nM
[4]; Inhibition Table A
  IC50: 100 nM

## C#CCN1CCC(C(=O)NO)(S(=O)(=O)c2ccc(Sc3ccc(F)cc3)cc2)CC1 [Example 24]
[1]; Inhibition Table A
  IC50: > 10 µM
[2]; Inhibition Table A
  IC50: 3.7 nM
[3]; Inhibition Table A
  IC50: 0.4 nM
[4]; Inhibition Table A
  IC50: 1 nM

## O=C(NO)C1(S(=O)(=O)c2ccc(Oc3ccc(-n4cncn4)cc3)cc2)CCOCC1 [Example 26]
[1]; Inhibition Table A
  IC50: 7.7 µM
[2]; Inhibition Table A
  IC50: 7 nM
[3]; Inhibition Table A
  IC50: 0.5 nM
[4]; Inhibition Table A
  IC50: 0.2 nM

## COCCN1CCC(C(=O)NO)(S(=O)(=O)c2ccc(Oc3ccccc3)cc2)CC1 [Example 30]
[1]; Inhibition Table B
  IC50: 0.35 µM
[2]; Inhibition Table B
  IC50: 0.3 nM
[3]; Inhibition Table B
  IC50: 0.1 nM
[4]; Inhibition Table B
  IC50: 0.1 nM

## C#CCN1CCC(C(=O)NO)(S(=O)(=O)c2ccc(Oc3ccc(OC)c(OC)c3)cc2)CC1 [Example 38, 4-[[4-(3,4-dimethoxyphenoxy)phenyl]sulfonyl]-N-hydroxy-1-(2-propynyl)-4-piperidinecarboxamide, Monohydrochloride]
[1]; Inhibition Table B
  IC50: > 10 µM
[2]; Inhibition Table B
  IC50: 135 nM
[3]; Inhibition Table B
  IC50: 22 nM
[4]; Inhibition Table B
  IC50: 20 nM

## CS(=O)(=O)N1CCC(C(=O)NO)(S(=O)(=O)c2ccc(Oc3ccc4c(c3)OCO4)cc2)CC1 [Example 42, 4-[[4-(1,3-benzodioxol-5-yloxy)phenyl]sulfonyl]-N-hydroxy-1-(methylsulfonyl)-4-piperidinecarboxamide]
[1]; Inhibition Table B
  IC50: 2.2 µM
[2]; Inhibition Table B
  IC50: 1.3 nM
[3]; Inhibition Table B
  IC50: 0.4 nM
[4]; Inhibition Table B
  IC50: 0.2 nM

## O=C(NO)C1(S(=O)(=O)c2ccc(N3CCC(Oc4ccc5c(c4)OCO5)CC3)cc2)CCOCC1 [Example 63, 4-[[4-[4-(1,3-Benzodioxol-5-yloxy)-1-piperidinyl]phenyl]sulfonyl]-tetrahydro-N-hydroxy-2H-pyran-4-carboxamide, Monohydrochloride]
[1]; Inhibition Table B
  IC50: > 10 µM
[2]; Inhibition Table B
  IC50: 530 nM
[3]; Inhibition Table B
  IC50: 1.5 nM
[4]; Inhibition Table B
  IC50: 18.1 nM

## COc1ccc(Sc2ccc(S(=O)(=O)C3(C(=O)NO)CCOCC3)cc2)cc1 [Example 65, Tetrahydro-N-hydroxy-4-[[4-(4-methoxyphenylthio)phenyl]-sulfonyl]-2H-pyran-4-carboxamide]
[1]; Inhibition Table B
  IC50: 8 µM
[2]; Inhibition Table B
  IC50: 4.4 nM
[3]; Inhibition Table B
  IC50: 0.7 nM
[4]; Inhibition Table B
  IC50: 0.6 nM

## O=C(NO)C1(S(=O)(=O)c2ccc(NCc3ccccc3)cc2)CCOCC1 [Example 68, tetrahydro-N-hydroxy-4-[[4-[(4-phenylmethyl)amino]phenyl]-sulfonyl]-2H-pyran-4-carboxamide, Monohydrochloride]
[1]; Inhibition Table B
  IC50: > 10 µM
[2]; Inhibition Table B
  IC50: 130 nM
[3]; Inhibition Table B
  IC50: 6 nM
[4]; Inhibition Table B
  IC50: 5.3 nM

## O=C(NO)C1(S(=O)(=O)c2ccc(Oc3cc(F)cc(F)c3)cc2)CCOCC1 [Example 70, 4-[[4-(3,5-difluorophenoxy)phenyl]sulfonyl]tetrahydro-N-hydroxy-2H-pyran-4-carboxamide]
[1]; Inhibition Table B
  IC50: 1.5 µM
[2]; Inhibition Table B
  IC50: 7.3 nM
[3]; Inhibition Table B
  IC50: 0.8 nM
[4]; Inhibition Table B
  IC50: 0.2 nM

## Cc1ccc(Oc2ccc(S(=O)(=O)C3(C(=O)NO)CN(C)CN(C)C3)cc2)cc1C [Example 78, 5-[4-(3,4-dimethylphenoxy)phenyl]sulfonyl-N^5-hydroxy-1,3-dimethylhexahydro-5-pyrimidinecarboxamide, Dihydrochloride]
[1]; Inhibition Table B
  IC50: > 10 µM
[2]; Inhibition Table B
  IC50: 50 nM
[3]; Inhibition Table B
  IC50: 10 nM
[4]; Inhibition Table B
  IC50: 6 nM

## Cc1cc(Oc2ccc(S(=O)(=O)C3(C(=O)NO)CCN(CC(=O)O)CC3)cc2)ccc1Cl [Example 80, 4-[[4-(4-chloro-3-methylphenoxy)phenyl]sulfonyl]-4-(hydroxyamino)carbonyl]-1-piperidineacetic Acid, Monohydrochloride]
[1]; Inhibition Table B
  IC50: 3 µM
[2]; Inhibition Table B
  IC50: 1.8 nM
[3]; Inhibition Table B
  IC50: 0.2 nM
[4]; Inhibition Table B
  IC50: 0.1 nM

## Cc1cc(Oc2ccc(S(=O)(=O)C3(C(=O)NO)CCNCC3)cc2)ccc1F [Example 83, 4-[[4-(4-fluoro-3-methylphenoxy)phenyl]sulfonyl]-N-hydroxy-4-piperidine Carboxamide, Monohydrochloride]
[1]; Inhibition Table B
  IC50: 8 µM
[2]; Inhibition Table B
  IC50: 5 nM
[3]; Inhibition Table B
  IC50: 1.5 nM
[4]; Inhibition Table B
  IC50: 1.2 nM

## C#CCN1CCC(C(=O)NO)(S(=O)(=O)c2ccc(Oc3ccc(Cl)cc3)cc2)CC1 [Example 85, 4-[[4-(4-chlorophenoxy)-phenyl]sulfonyl]-N-hydroxy-1-(2-propynyl)-4-piperidinecarboxamide, Monohydrochloride]
[1]; Inhibition Table B
  IC50: 0.5 µM
[2]; Inhibition Table B
  IC50: 0.4 nM
[3]; Inhibition Table B
  IC50: < 0.1 nM
[4]; Inhibition Table B
  IC50: < 0.1 nM

## O=C(O)CN1CCC(C(=O)NO)(S(=O)(=O)c2ccc(Sc3ccccc3)cc2)CC1 [Example 87, 4-[(hydroxyamino)-carbonyl]-4-[[4-(phenylthio)phenyl]-sulfonyl]-1-piperidineacetic Acid, Monohydrochloride]
[1]; Inhibition Table B
  IC50: 7.2 µM
[2]; Inhibition Table B
  IC50: 13.9 nM
[3]; Inhibition Table B
  IC50: 0.35 nM
[4]; Inhibition Table B
  IC50: 0.8 nM

## O=C(NCc1ccc(F)cc1)C1CCN(c2ccc(S(=O)(=O)C3(C(=O)NO)CCOCC3)cc2)CC1 [Example 197]
[1]; Inhibition Table B
  IC50: 7 µM
[3]; Inhibition Table B
  IC50: 8 nM
[4]; Inhibition Table B
  IC50: 145 nM

## O=C(C1CCCCC1)N1CCN(c2ccc(S(=O)(=O)C3(C(=O)NO)CCOCC3)cc2)CC1 [Example 200]
[1]; Inhibition Table B
  IC50: > 10 µM
[3]; Inhibition Table B
  IC50: 17.5 nM
[4]; Inhibition Table B
  IC50: 24 nM

## O=C(C1CCc2ccccc2C1)N1CCN(c2ccc(S(=O)(=O)C3(C(=O)NO)CCOCC3)cc2)CC1 (centres unmarked) [Example 201]
[1]; Inhibition Table B
  IC50: > 10 µM
[3]; Inhibition Table B
  IC50: 13.6 nM
[4]; Inhibition Table B
  IC50: 22.4 nM

## O=C(N1CCCCC1)N1CCN(c2ccc(S(=O)(=O)C3(C(=O)NO)CCOCC3)cc2)CC1 [Example 206]
[1]; Inhibition Table B
  IC50: > 10 µM
[3]; Inhibition Table B
  IC50: 20 nM
[4]; Inhibition Table B
  IC50: > 10 nM

## O=C(NO)C1(S(=O)(=O)c2ccc(-c3ccccc3)cc2)CCOCC1 [Example 213]
[1]; Inhibition Table B
  IC50: 0.31 µM
[3]; Inhibition Table B
  IC50: < 1 nM
[4]; Inhibition Table B
  IC50: < 1 nM

## O=C(NO)C1(S(=O)(=O)c2ccc(-c3ccsc3)cc2)CCOCC1 [Example 215]
[1]; Inhibition Table B
  IC50: 0.25 µM
[3]; Inhibition Table B
  IC50: < 1 nM
[4]; Inhibition Table B
  IC50: < 1 nM

## O=C(NO)C1(S(=O)(=O)c2ccc(-c3cccc(C(F)(F)F)c3)cc2)CCOCC1 [Example 219]
[1]; Inhibition Table B
  IC50: > 10 µM
[3]; Inhibition Table B
  IC50: < 1 nM
[4]; Inhibition Table B
  IC50: < 1 nM

## O=C(NO)C1(S(=O)(=O)c2ccc(-c3cccc4ccccc34)cc2)CCOCC1 [Example 224]
[1]; Inhibition Table B
  IC50: > 10 µM
[3]; Inhibition Table B
  IC50: 16.7 nM
[4]; Inhibition Table B
  IC50: 18.1 nM

## Cc1ccccc1-c1ccc(S(=O)(=O)C2(C(=O)NO)CCOCC2)cc1 [Example 225]
[1]; Inhibition Table B
  IC50: > 10 µM
[3]; Inhibition Table B
  IC50: 70 nM
[4]; Inhibition Table B
  IC50: 54 nM

## CC(C)(C)c1ccc(-c2ccc(S(=O)(=O)C3(C(=O)NO)CCOCC3)cc2)cc1 [Example 226]
[1]; Inhibition Table B
  IC50: > 10 µM
[3]; Inhibition Table B
  IC50: 6 nM
[4]; Inhibition Table B
  IC50: 18.6 nM

## O=C(NO)C1(S(=O)(=O)c2ccc(-c3ccc4ccccc4c3)cc2)CCOCC1 [Example 227]
[1]; Inhibition Table B
  IC50: > 10 µM
[3]; Inhibition Table B
  IC50: < 1 nM
[4]; Inhibition Table B
  IC50: < 1 nM

## O=Cc1cccc(-c2ccc(S(=O)(=O)C3(C(=O)NO)CCOCC3)cc2)c1 [Example 228]
[1]; Inhibition Table B
  IC50: 0.6 µM
[3]; Inhibition Table B
  IC50: < 1 nM
[4]; Inhibition Table B
  IC50: < 1 nM

## O=Cc1ccccc1-c1ccc(S(=O)(=O)C2(C(=O)NO)CCOCC2)cc1 [Example 230]
[1]; Inhibition Table B
  IC50: > 10 µM
[3]; Inhibition Table B
  IC50: > 100 nM
[4]; Inhibition Table B
  IC50: > 100 nM

## O=Cc1ccc(-c2ccc(S(=O)(=O)C3(C(=O)NO)CCOCC3)cc2)cc1 [Example 231]
[1]; Inhibition Table B
  IC50: 0.65 µM
[3]; Inhibition Table B
  IC50: < 1 nM
[4]; Inhibition Table B
  IC50: < 1 nM

## Nc1cccc(-c2ccc(S(=O)(=O)C3(C(=O)NO)CCOCC3)cc2)c1 [Example 232]
[1]; Inhibition Table B
  IC50: < 0.1 µM
[3]; Inhibition Table B
  IC50: < 1 nM
[4]; Inhibition Table B
  IC50: < 1 nM

## N,N-dimethyl-5-[4-[[tetrahydro-4-1[(hydroxyamino)-carbonyl]-2H-pyran-4-yl]sulfonyl]-phenoxy]-1H-indole-2-carboxamide, Trifluoroacetic Acid Salt [Example 124]
[1]; Inhibition Table B
  IC50: 1 µM
[3]; Inhibition Table B
  IC50: 1.1 nM
[4]; Inhibition Table B
  IC50: 0.5 nM
